One substance from US20110311591A1, “Antimicrobial Coating” (SHEFFIELD HALLAM UNIVERSITY, priority 2008, published 2011) can be followed below.

Type in all cases: cell-based
Assay [1] has as its system Escherichia coli (W3110, k 12 mutant). Kind of assay: Growth on agar/gentamicin plate (resistance check). As to conditions: 50 μg per ml. How it is done:
(§1) Each of the bacterium where grown on a nutrient agar plate and an agar/gentamicin plate at a concentration of 50 μg per ml. This ensured the bacterial strains used where not resistant to gentamicin. One colony from the bacteria agar plate was used to inoculate a sterilized L-broth of 1% tryptone, 0.5% yeast extract, 0.5% NaCl, 0.2% glucose and left over night in a shaking incubator at 37° C.

A further assay has as its system Staphylococcus aureus. The experiment in a line: Growth on agar/gentamicin plate (resistance check). Conditions: 50 μg per ml. The protocol: as §1
The subject of assay [2] is coagulase negative Staphylococcus epidermis. Kind of assay: Growth on agar/gentamicin plate (resistance check). Conditions: 50 μg per ml. The protocol: as §1
The subject of the next assay is bacteria. The experiment in a line: Viable count on high temperature (80° C.) dried coating. Conditions: coat dried at 80° C. The protocol:
The substrate was a standard glass microscope slide sterilized in an autoclave. Three different coatings were tested i) a pure sol-gel coating was used for a control, ii) a 5 mg/ml gentamicin solution mixed with sol-gel to form a 50 μg/ml coating (50 ppm) and a iii) 12.5 mg/ml concentration of gentamicin was made from gentamicin sulphate dissolved directly in the sol-gel to provide a 1.25% gentamicin sol-gel coating. Each coating was applied over the microscope slide using 200 μl of coating per plate, covered in one single coat and left for 24 hrs at room temperature to allow the coat to cure. Four plates were dried at 80° C. for 1 hr achieving a harder coat to determine if the gentamicin coat was still active after high temperature treatment.
To infect the plates with bacteria, a “sloppy agar” was made up from 0.7 g of nutrient agar dissolved in 100 ml of Phosphate buffer saline (PBS) and autoclaved forming a jelly like consistency. After melting, 5 ml of a inoculate L-broth was pipetted in to 100 ml of sloppy agar and mixed with 500 μl of this inoculated agar to be pipetted on to a coated plate forming a drop sitting on top of the coat. The plate was then laid flat into a Petri dish which was then placed in to a sealed, airtight, container with damp tissue paper to keep the sloppy agar in a moist environment to prevent drying out. […]

gentamicin: the susceptibility to gentamicin entry (in assay [1]; with Staphylococcus aureus; in assay [2]) was “susceptible” in each case. For the same substance, in the assay with bacteria, the “gentamicin activity and release after high temperature drying of the coat” value was “still active and released”.
